{
  "source": "patent US8569448B2",
  "about": "“NMDAR biomarkers for diagnosis and treatment of traumatic brain injury and other disorders” (Grace Laboratories, LLC, priority 2006, dated 2013)",
  "key": {"[1]": {"test_system": "isolated giant neurons of mollusk Planorbarius Corneus", "experiment": "physiological functions in isolated giant neurons of mollusk", "assay_type": "cell-based", "description": "Several double derivatives of glutamic acid {E-(CH2)n-E} or containing amino acids (glycine, lysine, histidine, and/or arginine, {E-amino acid-E}) including chelates (Fe2+, Mg2+, or Zn2+) were synthesized and used to study their physiological functions in isolated giant neurons of mollusk Planorbarius Corneus. […] The effect of these substances depended on the length of the amino acid chain (CH2)n between the residues of glutamic acid.\nThe Hill coefficient (nH) is a central parameter in the study of ligand-protein interactions, which measures the degree of co-operativity between subunits that bind the ligand in multi-subunit proteins. The most common usage of nH is as an estimate of the minimal number of interacting binding sites in positively co-operating systems. The Hill coefficient for tested compounds was about 0.75."}, "[2]": {"test_system": "patients who had suffered an acute ischemic stroke", "details": "sublingual 2.0 g/day, five consecutive days, acute ischemic stroke within six hours"}},
  "data": [
    {"compound": "N[C@@H](CCC(=O)O)C(=O)O", "note": "[glutamate]", "values": [
      {"measurement": "neuronal response evoked by application", "setting": "[1]; isolated giant neurons, application/injection of substance", "result": "biphasic responses"}
    ]},
    {"compound": "NCC(=O)O", "note": "[glycine]", "values": [
      {"measurement": "decrease of 30 day mortality compared to placebo", "setting": "[2]", "result": 20, "unit": "%"}
    ]},
    {"compound": "glutamic acid-lysine Zn2+-arginin-glutamic acid", "values": [
      {"measurement": "effect on neurons depending on chain length between glutamic acid residues", "setting": "[1]; comparison among double derivatives", "result": "maximal effect"}
    ]}
  ]
}
